From patent US20240277795A1, “INHIBITORS OF CYSTEINE PROTEASES AND METHODS OF USE THEREOF” (Pardes Biosciences, Inc., priority 2021, published 2024)
Where two headings read alike, the source gives them in different places.

Experiments:
[1] = biological target: 229E Mpro (Human coronavirus 229E, UniProt P0C6X1); experiment: 229E Mpro enzymatic assay; format: biochemical, HCoV 229E
Experimental: (§1) Compounds were assayed using standard methods to assess compound activity and IC50. As an exemplary for assessment of the SARS-COV2 Mpro, the C-His6-tagged Mpro (NC_045512) was cloned, expressed in E. coli and purified. The assay buffer contained 20 mM of Tris-HCl (pH 7.3), 100 mM of NaCl, 1 mM of EDTA, 5 mM of TCEP and 0.1% BSA. The final concentrations of the Mpro protein and substrate were 25 nM and 25 μM, respectively, in the Mpro enzymatic assay. The Km of the Mpro substrate for the protease was 13.5 μM.
(§2) The compounds were added to an assay plate. For 100% inhibition control (HPE, hundred percent effect), 1 μM GC376 was added. For no inhibition control (ZPE, zero percent effect), no compound was added.
(§3) IC50 values of compounds were calculated with the GraphPad Prism software using the nonlinear regression model of log(inhibitor) vs. response—Variable slope (four parameters). The inhibition activity was calculated using the formula below, IC50 values is calculated using the Inhibition % data.
(§4) [formula] • #HEP: Hundred percent effect controls. Containing substrate+enzyme+1 μM GC376. • ZPE: Zero percent effective controls. Containing enzyme+substrate, no compound. • Sample: Compound activity testing wells. Containing compound+enzyme+substrate. • BG: Compound background control wells. Containing compound+substrate, no enzyme.

[2] = biological target: SARS-COV2 Mpro (Severe acute respiratory syndrome coronavirus 2, UniProt P0DTD1); experiment: COVID-19 (nCoV-2019, SARS-CoV2) Mpro enzymatic assay; format: biochemical; conditions: read-out: COVID-19 Mpro IC50
Experimental: as §1, with “assay.” for “assay. The Km of the Mpro substrate for the protease was 13.5 μM.”
The compounds were added to an assay plate. For 100% inhibition control (HPE, hundred percent effect), 1 μM GC376 was added.
as §3
[formula] • #HEP: Hundred percent effect controls. […] Containing enzyme+substrate, no compound. • Sample: Compound activity testing wells. Containing compound+enzyme+substrate. • BG: Compound background control wells. Containing compound+substrate, no enzyme.

[3] = biological target: OC43 Mpro (Human coronavirus OC43, UniProt P0C6X6); experiment: OC43 Mpro enzymatic assay; format: biochemical, HCoV OC43
Chain of OC43 Mpro (P0C6X6 3247-3549): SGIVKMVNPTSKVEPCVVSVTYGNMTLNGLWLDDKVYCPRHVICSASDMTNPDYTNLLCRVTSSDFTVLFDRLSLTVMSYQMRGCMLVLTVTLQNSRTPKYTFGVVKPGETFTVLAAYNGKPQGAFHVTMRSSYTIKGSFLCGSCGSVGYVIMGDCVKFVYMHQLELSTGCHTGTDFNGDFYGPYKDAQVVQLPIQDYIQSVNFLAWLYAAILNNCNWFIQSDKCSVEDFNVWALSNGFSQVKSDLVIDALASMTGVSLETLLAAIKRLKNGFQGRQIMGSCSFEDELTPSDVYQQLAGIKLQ
Experimental: as §1, §2, §3, §4

Chain of 229E Mpro (P0C6X1 2966-3267): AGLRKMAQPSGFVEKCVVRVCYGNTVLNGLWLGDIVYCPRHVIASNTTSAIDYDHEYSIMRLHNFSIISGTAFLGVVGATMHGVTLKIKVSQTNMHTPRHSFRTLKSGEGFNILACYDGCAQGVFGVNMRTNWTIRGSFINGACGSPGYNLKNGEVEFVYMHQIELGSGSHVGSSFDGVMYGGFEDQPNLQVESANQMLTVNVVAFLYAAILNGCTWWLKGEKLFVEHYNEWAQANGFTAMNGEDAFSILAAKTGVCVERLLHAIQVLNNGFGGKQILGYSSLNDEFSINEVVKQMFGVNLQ

| SMILES | IC50 ([1]; Table 3) | IC50 ([2]; Table 3) | IC50 ([3]; Table 3) | IC50 ([1]; Table 5) | IC50 ([2]; Table 5) | IC50 ([3]; Table 5) |
| --- | --- | --- | --- | --- | --- | --- |
| CC(C)(C)[C@H](NC(=O)OC1CC(F)(F)C1(F)F)C(=O)N1C[C@H]2[C@@H]([C@H]1C(=O)N[C@H](C#N)C[C@@H]1CC3(CC3)NC1=O)C2(C)C (single isomer, unassigned) [273 Isomer 1] | < 2000 nM | < 2000 nM | < 2000 nM |  |  |  |
| CC(C)(C)[C@H](NC(=O)OC1CC(F)(F)C1(F)F)C(=O)N1C[C@H]2[C@@H]([C@H]1C(=O)N[C@H](C#N)C[C@@H]1CC3(CC3)NC1=O)C2(C)C (single isomer, unassigned) [273 Isomer 2] | < 2000 nM | < 2000 nM | < 2000 nM |  |  |  |
| CC(C)(C)[C@H](NC(=O)C1(CF)CC1(F)F)C(=O)N1C[C@H]2[C@@H]([C@H]1C(=O)N[C@H](C#N)C[C@@H]1CC3(CC3)NC1=O)C2(C)C (single isomer, unassigned) [292 Isomer 1] | < 2000 nM | < 2000 nM | < 2000 nM |  |  |  |
| CC(C)(C)[C@H](NC(=O)C1(CF)CC1(F)F)C(=O)N1C[C@H]2[C@@H]([C@H]1C(=O)N[C@H](C#N)C[C@@H]1CC3(CC3)NC1=O)C2(C)C (single isomer, unassigned) [292 Isomer 2] | < 2000 nM | < 2000 nM | < 2000 nM |  |  |  |
| CC1(C)[C@@H]2[C@@H](C(=O)N[C@H](C#N)C[C@@H]3CC4(CC4)NC3=O)N(C(=O)C(NC(=O)C(F)(F)F)C3CCC3)C[C@@H]21 (single isomer, unassigned) [372 Isomer 1] | < 2000 nM | < 2000 nM | < 2000 nM |  |  |  |
| CC1(C)[C@@H]2[C@@H](C(=O)N[C@H](C#N)C[C@@H]3CC4(CC4)NC3=O)N(C(=O)C(NC(=O)C(F)(F)F)C3CCC3)C[C@@H]21 (single isomer, unassigned) [372 Isomer 2] | < 2000 nM | < 2000 nM | < 2000 nM |  |  |  |
| COC(C)(C)[C@H](NC(=O)C(F)(F)F)C(=O)N1C[C@H]2[C@@H]([C@H]1C(=O)N[C@H](C#N)C[C@@H]1CC3(CC3)NC1=O)C2(C)C (single isomer, unassigned) [Compound 284] |  |  |  | 10000 to 30000 nM | < 2000 nM | < 2000 nM |
| C[C@@H](OC1CC1)[C@H](NC(=O)C(F)(F)F)C(=O)N1C[C@H]2[C@@H]([C@H]1C(=O)N[C@H](C#N)C[C@@H]1CC(C)(C)NC1=O)C2(C)C (single isomer, unassigned) [Compound 298] |  |  |  | < 2000 nM | < 2000 nM | < 2000 nM |
| C[C@@H](OC1CC1)[C@@H](NC(=O)C(F)(F)F)C(=O)N1C[C@H]2[C@@H]([C@H]1C(=O)N[C@H](C#N)C[C@@H]1CC(C)(C)NC1=O)C2(C)C (single isomer, unassigned) [Compound 298a] |  |  |  | < 2000 nM | < 2000 nM | < 2000 nM |
| C[C@@H](OC1(C)CC1)[C@H](NC(=O)C(F)(F)F)C(=O)N1C[C@H]2[C@@H]([C@H]1C(=O)N[C@H](C#N)C[C@@H]1CC(C)(C)NC1=O)C2(C)C (single isomer, unassigned) [Compound 299] | < 2000 nM | < 2000 nM | < 2000 nM | < 2000 nM |  | < 2000 nM |
| C[C@@H](OC1(C)CC1)[C@H](NC(=O)C(F)(F)F)C(=O)N1C[C@H]2[C@@H](C1C(=O)N[C@H](C#N)C[C@@H]1CC(C)(C)NC1=O)C2(C)C (single isomer, unassigned) [Compound 299a] |  |  |  | < 2000 nM | < 2000 nM | < 2000 nM |
| CN(C(=O)[C@@H](NC(=O)c1cnccn1)C(C)(C)C)[C@@H](CC1CC1)C(=O)N[C@H](C#N)C[C@@H]1CCCNC1=O [Compound 102, N-[(1S)-1-[[(1S)-2-[[(1S)-1-cyano-2-[(3S)-2-oxo-3-piperidyl]ethyl]amino]-1-(cyclopropylmethyl)-2-oxo-ethyl]-methyl-carbamoyl]-2,2-dimethyl-propyl]pyrazine-2-carboxamide] | 2000 to 10000 nM | > 30000 nM | 10000 to 30000 nM |  |  |  |
| N#C[C@H](C[C@@H]1CCNC1=O)NC(=O)[C@H](CC1CC1)NC(=O)[C@H](Cc1ccc(F)cc1)NC(=O)c1cnccn1 [Compound 125] | < 2000 nM | 2000 to 10000 nM | < 2000 nM |  |  |  |
| C[C@@H](OC(C)(C)C)[C@H](NC(=O)C(F)(F)F)C(=O)N1C[C@H]2[C@@H]([C@H]1C(=O)N[C@H](C#N)C[C@@H]1CC3(CC3)NC1=O)C2(C)C [Compound 137, (1R,2S,5S)-3-[(2S,3R)-3-tert-butoxy-2-[(2,2,2-trifluoroacetyl)amino]butanoyl]-N-[(1S)-1-cyano-2-[(6R)-5-oxo-4-azaspiro[2.4]heptan-6-yl]ethyl]-6,6-dimethyl-3-azabicyclo[3.1.0]hexane-2-carboxamide] |  |  |  | < 2000 nM | < 2000 nM | < 2000 nM |
| C[C@H](OC(C)(C)C)[C@H](NC(=O)C(F)(F)F)C(=O)N1C[C@H]2[C@@H]([C@H]1C(=O)N[C@H](C#N)C[C@@H]1CC3(CC3)NC1=O)C2(C)C [Compound 138, (1R,2S,5S)-3-[(2S,3S)-3-tert-butoxy-2-[(2,2,2-trifluoroacetyl)amino]butanoyl]-N-[(1S)-1-cyano-2-[(6R)-5-oxo-4-azaspiro[2.4]heptan-6-yl]ethyl]-6,6-dimethyl-3-azabicyclo[3.1.0]hexane-2-carboxamide] |  |  |  | < 2000 nM | < 2000 nM | < 2000 nM |
| COC(C)(C)[C@H](NC(=O)C(F)(F)F)C(=O)N1C[C@H]2[C@@H]([C@H]1C(=O)N[C@H](C#N)C[C@@H]1CC3(CC3)NC1=O)C2(C)C [Compound 139, (1R,2S,5S)—N—((S)-1-cyan-2-((R)-5-oxo-4-azaspiro[2.4]heptan-6-yl)ethyl)-3-((S)-3-methoxy-3-methyl-2-(2,2,2-trifluoroacetamido)butanoyl)-6,6-dimethyl-3-azabicyclo[3.1.0]hexane-2-carboxamide] |  |  |  | < 2000 nM | < 2000 nM | < 2000 nM |
| CC(C)(C)[C@H](N)C(=O)N1C[C@H]2[C@@H]([C@H]1C(=O)N[C@H](C#N)C[C@@H]1CC3(CC3)NC1=O)C2(C)C [Compound 235, (1R,2S,5S)-3-((S)-2-amino-3,3-dimethylbutanoyl)-N—((S)-1-cyano-2-((R)-5-oxo-4-azaspiro[2.4]heptan-6-yl)ethyl)-6,6-dimethyl-3-azabicyclo[3.1.0]hexane-2-carboxamide] | < 2000 nM | < 2000 nM | < 2000 nM |  |  |  |
| C[C@@H](OC(C)(C)C)[C@H](NC(=O)C(F)(F)F)C(=O)N1C[C@H]2[C@@H]([C@H]1C(=O)N[C@H](C#N)C[C@@H]1CC(C)(C)NC1=O)C2(C)C [Compound 285, (1RSS)-3-[(2S,3R)-3-tert-butoxy-2-[(2,2,2-trifluoroacetyl)amino]butanoyl]-N-[(1S)-1-cyano-2-[(3R)-5,5-dimethyl-2-oxo-pyrrolidin-3-yl]ethyl]-6,6-dimethyl-3-azabicyclo[3.1.0]hexane-2-carboxamide] | < 2000 nM | < 2000 nM | < 2000 nM |  |  |  |
| CO[C@H](C)[C@H](NC(=O)C(F)(F)F)C(=O)N1C[C@H]2[C@@H]([C@H]1C(=O)N[C@H](C#N)C[C@@H]1CC(C)(C)NC1=O)C2(C)C [Compound 290, (1R,2S,5S)-N—((S)-1-cyano-2-((R)-5,5-dimethyl-2-oxopyrrolidin-3-yl)ethyl)-3-((2S,3R)-3-methoxy-2-(2,2,2-trifluoroacetamido)butanoyl)-6,6-dimethyl-3-azabicyclo[3.1.0]hexane-2-carboxamide] |  |  |  | < 2000 nM | < 2000 nM | < 2000 nM |
| C[C@@H](OC(C)(C)C)[C@H](NC(=O)C1(C(F)(F)F)CC1)C(=O)N1C[C@H]2[C@@H]([C@H]1C(=O)N[C@H](C#N)C[C@@H]1CC(C)(C)NC1=O)C2(C)C [Compound 295, (1R,2S,5S)-3-[(2S,3R)-3-tert-butoxy-2-[[1-(trifluoromethyl)cyclopropanecarbonyl]amino]butanoyl]-N-[(1S)-1-cyano-2-[(3R)-5,5-dimethyl-2-oxo-pyrrolidin-3-yl]ethyl]-6,6-dimethyl-3-azabicyclo[3.1.0]hexane-2-carboxamide] |  |  |  | < 2000 nM | < 2000 nM | < 2000 nM |
| C[C@@H](OC1CCC1)[C@H](NC(=O)C(F)(F)F)C(=O)N1C[C@H]2[C@@H]([C@H]1C(=O)N[C@H](C#N)C[C@@H]1CC(C)(C)NC1=O)C2(C)C [Compound 307, (1R,2S,5S)—N-[(1S)-1-cyano-2-[(3R)-5,5-dimethyl-2-oxo-pyrrolidin-3-yl]ethyl]-3-[(2S,3R)-3-(cyclobutoxy)-2-[(2,2,2-trifluoroacetyl)amino]butanoyl]-6,6-dimethyl-3-azabicyclo[3.1.0]hexane-2-carboxamide] | < 2000 nM | < 2000 nM | < 2000 nM |  |  |  |
